# Values of other authors, collected in patent publication US10194693B2, “Aerosol generating device” (FONTEM HOLDINGS 1 B.V., priority 2013, dated 2019).
smiles,measurement,setting,value
CN1CCCC1c1cccnc1 (centres unmarked) [nicotine],time to peak increments of plasma nicotine concentration,smoking a cigarette,≤ 10 min
same,peak increments of plasma nicotine concentration,smoking a single cigarette,5 to 30 ng/mL
